The values that follow are results of earlier work, collected in patent publication US9034383B2 (NanoRx, Inc., priority 2010, dated 2015).

For data set [1], the system named is rats. To be noted: exercise-trained rats run to exhaustion on a treadmill; Kim et al. 2003.
The test system of data set [2] is angiogenesis. The conditions noted are these: Thippeswamy 2008.

As to `CCCCCCCCCCCCCCCCCCCCCCCCCCCCO` [pure octacosanol, octacosanol], the ergogenic properties entry in data set [1] was “sparing of muscle glycogen stores and increasing the oxidative capacity in the muscle”. Also, the “neurologic and pulmonary function” value (amyotrophic lateral sclerosis patients, double-blind placebo-controlled crossover, Fallat 1986) is “did not show any benefits”. Besides, for the setting “humans, Jahreis 2008”, the “neutral sterol and bile acid concentration in feces” value is on record as “decreases”. Besides, the angiogenesis result in data set [2] was “inhibits angiogenesis”.
